Assay results taken from PubChem BioAssay (NCI).
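In this assay, cells in 96-well plates receive the compound at five concentrations for 48 hours. Endpoints are linearly interpolated between the surrounding concentrations. TGI is the concentration that stops growth completely.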

Legend:
Assay in all cases: NCI tumour cell line growth inhibition, 48 h
MALME-3M melanoma = system: MALME-3M melanoma
DMS 114 small cell lung = system: DMS 114 small cell lung
SK-MEL-5 melanoma = system: SK-MEL-5 melanoma
HT29 colon = system: HT29 colon
IGROV1 ovarian = system: IGROV1 ovarian
TK-10 renal = system: TK-10 renal
XF 498 CNS = system: XF 498 CNS
LXFL 529 NSCLC = system: LXFL 529 NSCLC
SN12C renal = system: SN12C renal
OVCAR-8 ovarian = system: OVCAR-8 ovarian
CAKI-1 renal = system: CAKI-1 renal
OVCAR-3 ovarian = system: OVCAR-3 ovarian
OVCAR-4 ovarian = system: OVCAR-4 ovarian
SF-268 CNS = system: SF-268 CNS
HL-60(TB) leukemia = system: HL-60(TB) leukemia
SF-539 CNS = system: SF-539 CNS
KM20L2 colon = system: KM20L2 colon
RPMI-8226 leukemia = system: RPMI-8226 leukemia
COLO 205 colon = system: COLO 205 colon
HCT-15 colon = system: HCT-15 colon
HCT-116 colon = system: HCT-116 colon
HOP-62 NSCLC = system: HOP-62 NSCLC
M19-MEL melanoma = system: M19-MEL melanoma
EKVX NSCLC = system: EKVX NSCLC
CCRF-CEM leukemia = system: CCRF-CEM leukemia
NCI-H23 lung = system: NCI-H23 lung
SK-MEL-28 melanoma = system: SK-MEL-28 melanoma
K-562 leukemia = system: K-562 leukemia
DMS 273 small cell lung = system: DMS 273 small cell lung
SW-620 colon = system: SW-620 colon
NCI-H460 lung = system: NCI-H460 lung
HOP-18 NSCLC = system: HOP-18 NSCLC
SK-MEL-2 melanoma = system: SK-MEL-2 melanoma
A498 renal = system: A498 renal
SK-OV-3 ovarian = system: SK-OV-3 ovarian
UO-31 renal = system: UO-31 renal
DLD-1 colon = system: DLD-1 colon
SF-295 CNS = system: SF-295 CNS
SNB-19 CNS = system: SNB-19 CNS
RXF 393 renal = system: RXF 393 renal
M14 melanoma = system: M14 melanoma
NCI-H522 lung = system: NCI-H522 lung
A549 NSCLC = system: A549 NSCLC
MOLT-4 leukemia = system: MOLT-4 leukemia
KM12 colon = system: KM12 colon
786-0 renal = system: 786-0 renal
U251 CNS = system: U251 CNS
HCC-2998 colon = system: HCC-2998 colon
UACC-257 melanoma = system: UACC-257 melanoma
ACHN renal = system: ACHN renal
UACC-62 melanoma = system: UACC-62 melanoma
SNB-78 CNS = system: SNB-78 CNS
SNB-75 CNS = system: SNB-75 CNS
RXF-631 renal = system: RXF-631 renal
OVCAR-5 ovarian = system: OVCAR-5 ovarian
LOX IMVI melanoma = system: LOX IMVI melanoma
HOP-92 NSCLC = system: HOP-92 NSCLC

`O=[N+]([O-])c1ccc(Cl)cc1C1SCc2nc3ccccc3n21` (stereo not given) gave a TGI (MALME-3M melanoma) greater than 100 µM, a TGI (DMS 114 small cell lung) greater than 100 µM and a TGI (SK-MEL-5 melanoma) of 84.6 µM. The TGI (HT29 colon) was greater than 100 µM, the TGI (IGROV1 ovarian) was greater than 100 µM and the TGI (TK-10 renal) was greater than 100 µM. The TGI (XF 498 CNS) was greater than 100 µM, the TGI (LXFL 529 NSCLC) was greater than 100 µM and the TGI (SN12C renal) was greater than 100 µM. The TGI (OVCAR-8 ovarian) was greater than 100 µM, the TGI (CAKI-1 renal) was greater than 100 µM and the TGI (OVCAR-3 ovarian) was greater than 100 µM. For the same compound, the TGI (OVCAR-4 ovarian) was greater than 100 µM, the TGI (SF-268 CNS) was greater than 100 µM and the TGI (HL-60(TB) leukemia) was greater than 100 µM. The TGI (SF-539 CNS) was greater than 100 µM, the TGI (KM20L2 colon) was greater than 100 µM and the TGI (RPMI-8226 leukemia) was greater than 100 µM. For the same compound, the TGI (COLO 205 colon) was greater than 100 µM, the TGI (HCT-15 colon) was greater than 100 µM and the TGI (HCT-116 colon) was greater than 100 µM. It also gave a TGI (HOP-62 NSCLC) greater than 100 µM, a TGI (M19-MEL melanoma) greater than 100 µM and a TGI (EKVX NSCLC) greater than 100 µM. It also gave a TGI (CCRF-CEM leukemia) greater than 100 µM, a TGI (NCI-H23 lung) greater than 100 µM and a TGI (SK-MEL-28 melanoma) greater than 100 µM. The TGI (K-562 leukemia) was greater than 100 µM, the TGI (DMS 273 small cell lung) was greater than 100 µM and the TGI (SW-620 colon) was greater than 100 µM. It also gave a TGI (NCI-H460 lung) of 23.4 µM, a TGI (HOP-18 NSCLC) greater than 100 µM and a TGI (SK-MEL-2 melanoma) greater than 100 µM. For the same compound, the TGI (A498 renal) was 54 µM, the TGI (SK-OV-3 ovarian) was greater than 100 µM and the TGI (UO-31 renal) was greater than 100 µM. The TGI (DLD-1 colon) was greater than 100 µM, the TGI (SF-295 CNS) was greater than 100 µM and the TGI (SNB-19 CNS) was greater than 100 µM. For the same compound, the TGI (RXF 393 renal) was 73.3 µM, the TGI (M14 melanoma) was greater than 100 µM and the TGI (NCI-H522 lung) was 80.1 µM. It also gave a TGI (A549 NSCLC) greater than 100 µM, a TGI (MOLT-4 leukemia) greater than 100 µM and a TGI (KM12 colon) greater than 100 µM. It also gave a TGI (786-0 renal) greater than 100 µM, a TGI (U251 CNS) greater than 100 µM and a TGI (HCC-2998 colon) greater than 100 µM. For the same compound, the TGI (UACC-257 melanoma) was greater than 100 µM, the TGI (ACHN renal) was 27.4 µM and the TGI (UACC-62 melanoma) was greater than 100 µM. For the same compound, the TGI (SNB-78 CNS) was greater than 100 µM, the TGI (SNB-75 CNS) was 70.7 µM and the TGI (RXF-631 renal) was greater than 100 µM.

In the case of `COC(=O)CCC(=O)NC1C2CC3CC(C2)CC1C3` (stereo not given), the TGI (MALME-3M melanoma) was greater than 100 µM, the TGI (DMS 114 small cell lung) was greater than 100 µM and the TGI (OVCAR-5 ovarian) was greater than 100 µM. For the same compound, the TGI (SK-MEL-5 melanoma) was greater than 100 µM, the TGI (HT29 colon) was greater than 100 µM and the TGI (IGROV1 ovarian) was greater than 100 µM. The TGI (TK-10 renal) was greater than 100 µM, the TGI (XF 498 CNS) was greater than 100 µM and the TGI (LOX IMVI melanoma) was greater than 100 µM. For the same compound, the TGI (LXFL 529 NSCLC) was greater than 100 µM, the TGI (SN12C renal) was greater than 100 µM and the TGI (OVCAR-8 ovarian) was greater than 100 µM. It also gave a TGI (CAKI-1 renal) greater than 100 µM, a TGI (OVCAR-3 ovarian) greater than 100 µM and a TGI (OVCAR-4 ovarian) greater than 100 µM. It also gave a TGI (SF-268 CNS) greater than 100 µM, a TGI (HL-60(TB) leukemia) greater than 100 µM and a TGI (SF-539 CNS) greater than 100 µM. It also gave a TGI (KM20L2 colon) greater than 100 µM, a TGI (RPMI-8226 leukemia) greater than 100 µM and a TGI (COLO 205 colon) greater than 100 µM. It also gave a TGI (HCT-15 colon) greater than 100 µM, a TGI (HCT-116 colon) greater than 100 µM and a TGI (HOP-62 NSCLC) greater than 100 µM. For the same compound, the TGI (HOP-92 NSCLC) was greater than 100 µM, the TGI (M19-MEL melanoma) was greater than 100 µM and the TGI (EKVX NSCLC) was greater than 100 µM. The TGI (CCRF-CEM leukemia) was greater than 100 µM, the TGI (NCI-H23 lung) was greater than 100 µM and the TGI (SK-MEL-28 melanoma) was greater than 100 µM. The TGI (K-562 leukemia) was greater than 100 µM, the TGI (DMS 273 small cell lung) was greater than 100 µM and the TGI (SW-620 colon) was greater than 100 µM. The TGI (NCI-H460 lung) was greater than 100 µM, the TGI (HOP-18 NSCLC) was greater than 100 µM and the TGI (SK-MEL-2 melanoma) was greater than 100 µM. The TGI (A498 renal) was greater than 100 µM, the TGI (SK-OV-3 ovarian) was greater than 100 µM and the TGI (UO-31 renal) was greater than 100 µM. It also gave a TGI (DLD-1 colon) greater than 100 µM, a TGI (SF-295 CNS) greater than 100 µM and a TGI (SNB-19 CNS) greater than 100 µM. It also gave a TGI (RXF 393 renal) greater than 100 µM, a TGI (M14 melanoma) greater than 100 µM and a TGI (NCI-H522 lung) greater than 100 µM. It also gave a TGI (A549 NSCLC) greater than 100 µM, a TGI (MOLT-4 leukemia) greater than 100 µM and a TGI (KM12 colon) greater than 100 µM. It also gave a TGI (786-0 renal) greater than 100 µM, a TGI (U251 CNS) greater than 100 µM and a TGI (HCC-2998 colon) greater than 100 µM. The TGI (UACC-257 melanoma) was greater than 100 µM, the TGI (ACHN renal) was greater than 100 µM and the TGI (UACC-62 melanoma) was greater than 100 µM. For the same compound, the TGI (SNB-75 CNS) was greater than 95.4 µM and the TGI (RXF-631 renal) was greater than 100 µM.
